# Assay results from patent publication US20120083464A1, “NEUROPROTECTIVE PROPERTIES OF 5'-METHYLTHIOADENOSINE” (priority 2009, published 2012).
# Entries after “also recorded” stand apart in the source; their conditions may differ.
# Assays:
# RN22 cells [1] = assay: Copper sulphate stress in RN22 cells, MTT cell viability; format: cell-based, rat
# Procedure: (§1) RN22 cells were maintained at 37° C. in DMEM medium supplemented with 10% of fetal bovine serum and penicillin/streptomycine. The assays against stress with copper sulphate were conducted using 24-well plates in DMEM medium without serum. After allowing cell adherence for three days, NGF (100 ng/ml) or MTA was added to different concentrations half an hour before the copper sulphate (150 μM). After twenty-four hours, cell viability was quantified by MTT assay and ROS production was quantified by fluorescence. Assays against stress with hydrogen peroxide were conducted in the same way as the foregoing, using 100 μM hydrogen peroxide as a stress-producing agent.
# (§2) We determined the quantity of MTT (Sigma) that is reduced to insoluble formazan. After separating the medium, the water-insoluble formazan is solubilised in DMSO and the dissolved material is measured in a spectrophotometer at 570 nm.
# caspase 3 activity = assay: NMDA-mediated increase in caspase 3 activity in pure neuronal culture; format: cell-based, Sprague-Dawley rat; conditions: NMDA 300 μM, MTA 100 to 500 μM
# Procedure: Primary cultures of brain cortical neurons were essentially prepared as described previously (Bruno et al., 2001, Eur. J. Neurosci., 13:1469-1478). The fronto-lateral cortical lobes were dissected out of Sprague-Dawley embryonic day 17 foetuses and were mechanically dissociated in Hanks' balanced solution. The cortical lobes were triturated by aspirating 7-10 times using a Pasteur pipette with a flame-narrowed tip. […]
# Cortical neurons or mixed cortical neurons and glia were plated on poly-L-lysine-coated 6-well culture plates and after 7 DIV, cells were treated with vehicle or NMDA (300 μM) for different periods of time. […] Extracts were then centrifuged at 5,000×g for 10 min at 4° C., and protein content was determined by using the BCA protein assay according to the manufacturer instructions. Cell extracts (40 μg of protein) were incubated in reaction buffer (25 mM Hepes, 10% sucrose, 0.1% CHAPS, 10 mM DTT) containing 50 μM fluorescence substrate Z-DEVD-AFC at 37° C. for 1 h. Cleavage of the AFC fluorophore was determined in a spectrofluorometer at excitation wavelength of 400 nm and fluorescence was detected at an emission wavelength of 505 nm. Caspase 3 activity was expressed as units of fluorescence/mg of protein/h (Posadas et al., 2009, Pharm. Res., In press).
# IL-1β release = assay: LPS neuroinflammation model in cerebellar organotypic cultures: IL1-beta ELISA; format: cell-based, C57/B16 wild type mice; conditions: 192 μM MTA pre-treatment, 15 μg/ml LPS, 3 hrs
# Text: Organotypic cultures model of neuroinflammation is based on previous observations in which systemic injections of lipopolysaccharide (LPS) in mice spinal cord induce inflammation, demyelinization and Wallerian degeneration. In mice cerebellar organotypic cultures, LPS induces microglia activation with consequent demyelination and axonal damage. In particular, LPS induces TNF-alpha, IL1-beta release, axonal swelling and end bulbs due to axonal transport block, and a decrease of axonal density. Organotypic cultures represent the best model to represent in vivo mechanisms since they maintain cell-cell interaction and organotypic structure of brain region studied. In this way, this in vitro neuroinflammation model reproduces the microglia activation, demyelinization and axonal damage phenomena observed in MS.
# Cerebellar organotypic cultures which were pre-treated for half hour with 192 μM of MTA and 15 μg/ml of LPS have been used to generate neuroinflammation model.
# 2. Data analysis: Western blot, immunofluorescence and ELISA analysis were performed using conventional techniques.
# [2] = system: mixed cultures of neurons and astrocytes obtained from the cerebral cortex; assay: Oxygen-glucose deprivation (simulated ischemia) in neuron-astrocyte co-cultures; format: cell-based, Sprague-Dawley rat
# Text: Primary neuron cultures were obtained from the cortical lobes of E18 Sprague-Dawley rat embryos according to previously described procedures (Cheung et al., 1998, Neuropharmacology 37:1419-1429). The cells were resuspended in B27 Neurobasal medium plus 10% FBS and then seeded in 24-well plates at 1-2×10^5 cells per well onto a monolayer of astrocytes which were previously prepared as described earlier (Vallejo-Illarramendi et al., 2005, Glia 50:276-279). One day later, the medium was replaced by B27-supplemented Neurobasal medium and 10% fetal bovine serum, and maintained at 37° C. and 5% CO2. Cultures were used 8-9 days after plating. Cultured neurons and astrocytes were identified using antibodies to microtubule associated protein-2 and glial fibrillary acidic protein, respectively.
# Ischemic damage was induced by incubating cell cultures in a hyperbaric chamber for 1 hour in nitrogen-saturated buffer containing NaCl 130 mM, KCl 5.4 mM, CaCl2 0.1323 mM, […], MgCl2 0.8 mM, NaH2PO4 1.18 mM, 10 mM sucrose as a substitute of glucose, and the glyocolytic blocker iodoacetate (20 or 50 μM). After the insult, cells were incubated in normoxia, glucose added and iodoacetate removed for an additional period of 24 hours. […] The results are expressed as the mean±SEM of at least four independent experiments performed in triplicate.
# RN22 cells [3] = assay: Hydrogen peroxide stress in RN22 cells, MTT cell viability; format: cell-based, rat; conditions: hydrogen peroxide 100 μM, twenty-four hours; MTA 25 μM-3 mM
# Procedure: as §1, §2
compound,measurement,setting,value
"CSC[C@H]1O[C@@H](n2cnc3c(N)ncnc32)[C@H](O)[C@@H]1O [MTA, 5′-methylthioadenosine]",cell viability response (MTT) under copper sulphate stress at high MTA concentrations,RN22 cells [1]; MTA in mM range,lowest response
same,cell viability (MTT) under copper sulphate stress,"RN22 cells [1]; copper sulphate 150 μM, twenty-four hours, reaches NGF control levels at most MTA concentrations",significant neuroprotective effect
same,effect on NMDA-mediated increase in caspase 3 activity,caspase 3 activity,Lack of effect
same,IL-1β release (ELISA),IL-1β release,decreases; also recorded: minor quantity
same,protection from OGD-induced damage compared with APV (50 μM),[2]; MTA at 10 μM,even more protective than APV
same,protection from OGD (ischemia)-induced damage,"[2]; OGD 1 hour with IAA at 20 or 50 μM, both conditions, assayed 24 hours later",highly protective
same,cell viability (MTT) under hydrogen peroxide stress,RN22 cells [3],capable of maintaining cell viability
